Where two headings read alike, the source gives them in different places.
How the values were obtained:
non-expressing oocytes [1] = experiment: cells; format: cell-based, Xenopus laevis; settings: non-expressing oocytes, total [3H]CQ transport, normalised to the oocyte type control
Method in brief: (§1)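 ND96, pH 5.5, 1.5 h, 27.5 °C; uptake direction acidic outside → oocyte cytosol, mimicking efflux from digestive vacuole. Ice-cold wash stop, 10% SDS lysis, scintillation counting. Ten oocytes/treatment, ≥4 independent experiments.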

PfCRT^3D7 [2] = molecular target: T1, PfCRT^3D7 (Plasmodium falciparum, UniProt Q8IBZ9); experiment: cell-based; format: cell-based; settings: PfCRT3D7 oocytes, total [3H]CQ transport, normalised to the oocyte type control
T1 sequence (Q8IBZ9 59-398): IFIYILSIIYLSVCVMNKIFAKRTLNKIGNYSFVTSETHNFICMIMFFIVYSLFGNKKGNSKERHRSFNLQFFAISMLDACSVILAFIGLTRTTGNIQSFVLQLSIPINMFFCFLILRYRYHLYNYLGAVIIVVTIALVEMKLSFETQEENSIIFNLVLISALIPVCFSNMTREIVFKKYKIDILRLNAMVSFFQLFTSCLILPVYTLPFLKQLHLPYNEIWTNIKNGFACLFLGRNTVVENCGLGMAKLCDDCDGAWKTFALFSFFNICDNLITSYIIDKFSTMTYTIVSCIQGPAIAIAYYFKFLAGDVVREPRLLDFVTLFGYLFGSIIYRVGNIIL
Method in brief: as §1

PfCRT^Dd2 [3] = molecular target: T2, PfCRT^Dd2 (Plasmodium falciparum, UniProt Q9N623, A220S/I356T/K76T/M74I/N326S/N75E/Q271E/R371I); experiment: [3H]CQ uptake into Xenopus oocytes, cis-inhibition by unlabelled solute; format: cell-based; settings: PfCRTDd2 oocytes, background [3H]CQ accumulation subtracted, normalised to oocyte type control
T2 sequence (Q9N623 whole entry A220S/I356T/K76T/M74I/N326S/N75E/Q271E/R371I): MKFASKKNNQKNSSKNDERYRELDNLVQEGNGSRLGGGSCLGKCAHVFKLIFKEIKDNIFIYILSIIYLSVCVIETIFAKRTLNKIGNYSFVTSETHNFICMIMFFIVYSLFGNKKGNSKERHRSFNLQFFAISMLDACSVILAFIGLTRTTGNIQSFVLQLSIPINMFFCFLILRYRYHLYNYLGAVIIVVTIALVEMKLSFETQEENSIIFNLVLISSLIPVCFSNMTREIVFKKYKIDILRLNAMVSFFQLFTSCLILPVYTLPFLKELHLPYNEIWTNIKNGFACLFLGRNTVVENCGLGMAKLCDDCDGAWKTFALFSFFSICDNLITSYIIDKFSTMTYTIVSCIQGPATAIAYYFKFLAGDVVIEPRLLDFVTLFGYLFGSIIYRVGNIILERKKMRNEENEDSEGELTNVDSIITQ
Method in brief: as §1

PfCRT^Ecu1110 [4] = molecular target: T3, PfCRT^Ecu1110 (Plasmodium falciparum, UniProt Q9N623, A220S/I356L/K76T/N326D); experiment: as above; format: cell-based; settings: for Uptake of [3H]CQ (% PfCRTEcu1110 control), cis-inhibition / PfCRT-mediated [3H]CQ transport, cis-inhibition (% PfCRTEcu1110 control): PfCRTEcu1110 oocytes; for Uptake of [3H]CQ (% PfCRTEcu1110 control), cis-inhibition: total [3H]CQ transport, normalised to the oocyte type control; for PfCRT-mediated [3H]CQ transport, cis-inhibition (% PfCRTEcu1110 control): background [3H]CQ accumulation subtracted, normalised to oocyte type control; for [3H]CQ transport (% PfCRTEcu1110 control), cis-inhibition, PfCRTEcu1110: PfCRT-mediated component (background subtracted), sheet title says normalised to PfCRTDd2 control, mean ± SEM, SEM
T3 sequence (Q9N623 whole entry A220S/I356L/K76T/N326D): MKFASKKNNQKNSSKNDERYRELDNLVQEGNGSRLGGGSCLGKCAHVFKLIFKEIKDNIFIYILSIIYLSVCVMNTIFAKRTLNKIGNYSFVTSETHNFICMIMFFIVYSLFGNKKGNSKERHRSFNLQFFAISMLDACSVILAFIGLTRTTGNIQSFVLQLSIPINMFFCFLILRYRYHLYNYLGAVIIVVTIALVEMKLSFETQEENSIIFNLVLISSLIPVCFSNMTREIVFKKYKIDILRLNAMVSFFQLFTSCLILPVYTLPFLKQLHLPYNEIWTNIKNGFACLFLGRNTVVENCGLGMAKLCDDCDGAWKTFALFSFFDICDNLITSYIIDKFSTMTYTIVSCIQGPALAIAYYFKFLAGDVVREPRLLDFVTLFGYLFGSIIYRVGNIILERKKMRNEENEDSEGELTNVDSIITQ
Method in brief: as §1

non-expressing oocytes [5] = format: cell-based, Xenopus laevis; settings: non-expressing oocytes, total [3H]CQ transport, normalised to the oocyte type control
Method in brief: (§2)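 Oocytes (ten per treatment, ≥4 independent frogs/days) were preloaded by injecting VF-6 in 25 nL ND96 at pH 5.0, 5.5, 6.0 or 7.0, or Na^+-free choline buffer, then uptake run 1.5 h, 27.5 °C, ND96 pH 5.5 by default. Internal concentrations assumed ~400 nL oocyte volume.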

PfCRT^3D7 [6] = molecular target: T1, PfCRT^3D7; experiment: cell-based; format: cell-based; settings: PfCRT3D7 oocytes; for Uptake of [3H]CQ (% PfCRT3D7 control), trans-stimulation: total [3H]CQ transport, normalised to the oocyte type control; for PfCRT-mediated [3H]CQ transport, trans-stimulation (% PfCRT3D7 control): normalised to oocyte type control
Method in brief: as §2

PfCRT^Dd2 [7] = molecular target: T2, PfCRT^Dd2; experiment: cell-based; format: cell-based; settings: for Uptake of [3H]CQ (% PfCRTDd2 control), trans-stimulation / PfCRT-mediated [3H]CQ transport, trans-stimulation (% PfCRTDd2 control): PfCRTDd2 oocytes; for Uptake of [3H]CQ (% PfCRTDd2 control), trans-stimulation: total [3H]CQ transport, normalised to the oocyte type control; for PfCRT-mediated [3H]CQ transport, trans-stimulation (% PfCRTDd2 control): normalised to oocyte type control; for [3H]CQ transport (% PfCRTDd2 control), trans-stimulation, PfCRTDd2: PfCRT-mediated component (background subtracted), mean ± SEM, SEM
Method in brief: as §2

PfCRT^Ecu1110 [8] = molecular target: T3, PfCRT^Ecu1110; experiment: cell-based; format: cell-based; settings: for Uptake of [3H]CQ (% PfCRTEcu1110 control), trans-stimulation / PfCRT-mediated [3H]CQ transport, trans-stimulation (% PfCRTEcu1110 control): PfCRTEcu1110 oocytes; for Uptake of [3H]CQ (% PfCRTEcu1110 control), trans-stimulation: total [3H]CQ transport, normalised to the oocyte type control; for PfCRT-mediated [3H]CQ transport, trans-stimulation (% PfCRTEcu1110 control): normalised to oocyte type control; for [3H]CQ transport (% PfCRTDd2 control), trans-stimulation, PfCRTEcu1110: PfCRT-mediated component (background subtracted), sheet title says normalised to PfCRTDd2 control, mean ± SEM, SEM
Method in brief: as §2

PfNT1 = molecular target: T4, PfNT1 (Plasmodium falciparum, UniProt Q8IDM6); experiment: cell-based; format: cell-based; settings: PfNT1 oocytes, total [3H]CQ transport, normalised to the oocyte type control
T4 construct: expressed in transfected cells; host or cells: Xenopus laevis oocytes (stage V-VI), cRNA-injected
T4 sequence (Q8IDM6 whole entry): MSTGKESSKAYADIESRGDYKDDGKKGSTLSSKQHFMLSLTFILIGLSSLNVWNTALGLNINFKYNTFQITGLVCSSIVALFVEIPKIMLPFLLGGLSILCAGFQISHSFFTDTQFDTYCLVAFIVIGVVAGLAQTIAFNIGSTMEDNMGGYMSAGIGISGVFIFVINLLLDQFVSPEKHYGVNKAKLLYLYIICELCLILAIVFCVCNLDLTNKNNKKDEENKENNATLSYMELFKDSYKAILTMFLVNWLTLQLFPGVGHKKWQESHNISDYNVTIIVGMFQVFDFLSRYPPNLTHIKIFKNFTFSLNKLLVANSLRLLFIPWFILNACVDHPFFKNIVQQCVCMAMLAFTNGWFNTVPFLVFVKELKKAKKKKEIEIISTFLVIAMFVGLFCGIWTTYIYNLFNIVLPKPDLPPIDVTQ
Method in brief: as §2

[9] = [test solute]i = 45 mM (30 mM for some solutes due to solubility)
[10] = [test solute]i = 5 mM (intracellular)
[11] = [test solute]i = 45 mM (intracellular; 30 mM for some solutes due to solubility)
[12] = [test solute]i = 5 mM (injected)

## PNAL [PL-4, host-derived peptide]
non-expressing oocytes [1]; [test solute] = 1 mM
  Uptake of [3H]CQ (% non-expressing oocyte control), cis-inhibition: 100 ± 4.7 % non-expressing oocyte control
non-expressing oocytes [1]; [test solute] = 2 mM
  Uptake of [3H]CQ (% non-expressing oocyte control), cis-inhibition: 99 ± 3.6 % non-expressing oocyte control
PfCRT^3D7 [2]; [test solute] = 0.5 mM
  Uptake of [3H]CQ (% PfCRT3D7 control), cis-inhibition: 99 ± 5.3 % PfCRT3D7 control
PfCRT^3D7 [2]; [test solute] = 1 mM
  Uptake of [3H]CQ (% PfCRT3D7 control), cis-inhibition: 98 ± 5.7 % PfCRT3D7 control
PfCRT^3D7 [2]; [test solute] = 2 mM
  Uptake of [3H]CQ (% PfCRT3D7 control), cis-inhibition: 101 ± 6.3 % PfCRT3D7 control
PfCRT^Dd2 [3]; [test solute] = 0.5 mM
  PfCRT-mediated [3H]CQ transport, cis-inhibition (% PfCRTDd2 control): 68 ± 2.6 % PfCRTDd2 control
PfCRT^Dd2 [3]; [test solute] = 1 mM
  PfCRT-mediated [3H]CQ transport, cis-inhibition (% PfCRTDd2 control): 55 ± 4.1 % PfCRTDd2 control
PfCRT^Dd2 [3]; [test solute] = 2 mM
  PfCRT-mediated [3H]CQ transport, cis-inhibition (% PfCRTDd2 control): 39 ± 1.8 % PfCRTDd2 control
PfCRT^Ecu1110 [4]; [test solute] = 0.5 mM
  Uptake of [3H]CQ (% PfCRTEcu1110 control), cis-inhibition: 66 ± 2.9 % PfCRTEcu1110 control
  PfCRT-mediated [3H]CQ transport, cis-inhibition (% PfCRTEcu1110 control): 58 ± 0.5 % PfCRTEcu1110 control
  [3H]CQ transport (% PfCRTEcu1110 control), cis-inhibition, PfCRTEcu1110: 18 ± 0.2 % PfCRTEcu1110 control
PfCRT^Ecu1110 [4]; [test solute] = 1 mM
  Uptake of [3H]CQ (% PfCRTEcu1110 control), cis-inhibition: 57 ± 2.7 % PfCRTEcu1110 control
  PfCRT-mediated [3H]CQ transport, cis-inhibition (% PfCRTEcu1110 control): 52 ± 2.6 % PfCRTEcu1110 control
  [3H]CQ transport (% PfCRTEcu1110 control), cis-inhibition, PfCRTEcu1110: 16 ± 0.1 % PfCRTEcu1110 control
PfCRT^Ecu1110 [4]; [test solute] = 2 mM
  Uptake of [3H]CQ (% PfCRTEcu1110 control), cis-inhibition: 45 ± 2.4 % PfCRTEcu1110 control
  PfCRT-mediated [3H]CQ transport, cis-inhibition (% PfCRTEcu1110 control): 39 ± 2.1 % PfCRTEcu1110 control
  [3H]CQ transport (% PfCRTEcu1110 control), cis-inhibition, PfCRTEcu1110: 12 ± 0.3 % PfCRTEcu1110 control
non-expressing oocytes [5]; [test solute]i = 5 mM
  Uptake of [3H]CQ (% non-expressing oocyte control), trans-stimulation: 100 ± 3.8 % non-expressing oocyte control
non-expressing oocytes [5]; [9]
  Uptake of [3H]CQ (% non-expressing oocyte control), trans-stimulation: 99 ± 3.7 % non-expressing oocyte control
PfCRT^3D7 [6]; [test solute]i = 5 mM
  Uptake of [3H]CQ (% PfCRT3D7 control), trans-stimulation: 100 ± 2.2 % PfCRT3D7 control
PfCRT^3D7 [6]; [9]
  Uptake of [3H]CQ (% PfCRT3D7 control), trans-stimulation: 101 ± 2.1 % PfCRT3D7 control
PfCRT^3D7 [6]; [10]
  PfCRT-mediated [3H]CQ transport, trans-stimulation (% PfCRT3D7 control): 98 ± 4.3 % PfCRT3D7 control
PfCRT^3D7 [6]; [11]
  PfCRT-mediated [3H]CQ transport, trans-stimulation (% PfCRT3D7 control): 99 ± 3.4 % PfCRT3D7 control
PfCRT^Dd2 [7]; [test solute]i = 5 mM
  Uptake of [3H]CQ (% PfCRTDd2 control), trans-stimulation: 99 ± 3.4 % PfCRTDd2 control
PfCRT^Dd2 [7]; [9]
  Uptake of [3H]CQ (% PfCRTDd2 control), trans-stimulation: 97 ± 4.3 % PfCRTDd2 control
  [3H]CQ transport (% PfCRTDd2 control), trans-stimulation, PfCRTDd2: 95 ± 3.8 % PfCRTDd2 control
PfCRT^Dd2 [7]; [10]
  PfCRT-mediated [3H]CQ transport, trans-stimulation (% PfCRTDd2 control): 97 ± 2.1 % PfCRTDd2 control
PfCRT^Dd2 [7]; [11]
  PfCRT-mediated [3H]CQ transport, trans-stimulation (% PfCRTDd2 control): 95 ± 3.8 % PfCRTDd2 control
PfCRT^Dd2 [7]; [12]
  [3H]CQ transport (% PfCRTDd2 control), trans-stimulation, PfCRTDd2: 97 ± 2.1 % PfCRTDd2 control
PfCRT^Ecu1110 [8]; [test solute]i = 5 mM
  Uptake of [3H]CQ (% PfCRTEcu1110 control), trans-stimulation: 99 ± 3.3 % PfCRTEcu1110 control
PfCRT^Ecu1110 [8]; [9]
  Uptake of [3H]CQ (% PfCRTEcu1110 control), trans-stimulation: 100 ± 2.2 % PfCRTEcu1110 control
  [3H]CQ transport (% PfCRTDd2 control), trans-stimulation, PfCRTEcu1110: 30 ± 1.4 % PfCRTEcu1110 control
PfCRT^Ecu1110 [8]; [10]
  PfCRT-mediated [3H]CQ transport, trans-stimulation (% PfCRTEcu1110 control): 97 ± 4.9 % PfCRTEcu1110 control
PfCRT^Ecu1110 [8]; [11]
  PfCRT-mediated [3H]CQ transport, trans-stimulation (% PfCRTEcu1110 control): 98 ± 3.0 % PfCRTEcu1110 control
PfCRT^Ecu1110 [8]; [12]
  [3H]CQ transport (% PfCRTDd2 control), trans-stimulation, PfCRTEcu1110: 29 ± 1.7 % PfCRTEcu1110 control
PfNT1; [test solute]i = 5 mM
  Uptake of [3H]CQ (% PfNT1 control), trans-stimulation: 99 ± 3.2 % PfNT1 control
PfNT1; [9]
  Uptake of [3H]CQ (% PfNT1 control), trans-stimulation: 100 ± 2.4 % PfNT1 control
